The values below come from EPA's ToxValDB 9.5 (doi:10.2903/j.efsa.2016.4493).

One data set deals with Bibionidae. Conditions: chronic/long-term; duration: 28 days; other.
The next data set has as its system Apis mellifera. The following applies: acute, mortality.
For the next data set, the system named is Folsomia candida. The following applies: chronic/long-term; duration: 4 weeks; reproduction.
The next data set has as its system Tagia sp. Conditions: mortality.
In another data set the test system is Oryctolagus sp. The following applies: developmental; development.
Another data set relates to Mus musculus. The following applies: acute; oral; mortality.

`O=S(=O)(O)O.Oc1cccc2cccnc12.Oc1cccc2cccnc12` [8-Hydroxyquinoline sulfate]: the NOEC with Bibionidae came to 167 mg/L; in the data set with Oncorhynchus mykiss (chronic/long-term, duration: 28 days, development), 10.5 µg/L; with Folsomia candida it was 52.4 mg/kg; in the data set with Tagia sp. (chronic/long-term) it was 417 mg/kg. In addition, the LD50 in the data set with Apis mellifera (dermal) is above 100 µg/piece; in the data set with Apis mellifera (oral, unspecified), above 68.6 µg/piece. The LC50 was 2.68 µg/mL in the data set with Oncorhynchus mykiss (acute, duration: 96 hours, mortality) and above 409 mg/kg with Tagia sp. (acute, duration: 14 days).

Consider `Oc1cccc2cccnc12` [8-Hydroxyquinoline], for which the NOAEL in the data set on Rattus norvegicus (chronic, duration: 2 years, body weight) stood at 73 mg/kg-day; in the data set on Rattus norvegicus (subchronic, duration: 90 days, oral, hematological), 97.7 mg/kg-day; in the data set with Oryctolagus sp., 5 mg/kg-day; with Coturnix japonica (chronic), 2.78 mg/kg-day. Moreover, the LD50 was above 1070 mg/kg-day in the data set on Coturnix japonica (acute, oral, diet, mortality) and 177 mg/kg-day in the data set on Mus musculus. Also, the LC50 with Coturnix japonica (acute, oral, mortality) turned out to be 311 mg/kg-day.

Broadly, the NOAEL is the highest dose or exposure tested at which no adverse effect was seen.
